According to publication PMC11292009, “Mapping protein binding sites by photoreactive fragment pharmacophores” (Communications Chemistry, 2024):
Where “and” joins values, the source holds several entries; their conditions need not be identical. Identical values can stand only once. Values belong to the compound of their own block, whether it stands above or below them.

Key:
Format in all cases: binding
KRas^G12D = tested on: T1, KRas^G12D; test: Intact MS photoaffinity labeling screen, KRas G12D (302 nm, LCMS-TOF); settings: for MS labeling percentage, KRas: KRas G12D, 302 nm 10 min; for KRAS-G12D: experimental hit status flag (0/1)
T1 construct: purchased GSK/GenScript
Summary of the method: (§1)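 Labeling detected as mass additions in deconvoluted intact-protein LCMS-TOF spectra. Protein at 1 μM in PBS was first mixed with one fragment per well on ice for 15 min, followed by 10 min UV exposure at 302 nm.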

[1] = tested on: CA, Lyo, Myo, BRD4-BD1, KRas G12D, STAT5B-NTD; test: Intact MS labeling compared over all protein targets; settings: for Labeling of the other protein targets (vs. preferred target): each of the other targets
Experimental: Using a plate-based format with one fragment per well, each fragment was incubated with the target proteins for 15 min to allow for the formation of non-covalent interactions. The plate was then irradiated at 302 or 365 nm for 10 min to enable the bound fragments to crosslink to the protein[26]. Finally, the results were directly analyzed from the plate using intact protein mass spectrometry by observing the mass additions that correspond to successful labeling (Fig. 2c, for labeling % values see Supplementary data). The library was first characterized against three benchmark proteins like carbonic anhydrase (CA), lysozyme (Lyo), and myoglobin (Myo).
The PhP library was screened against BRD4-BD1 and KRas^G12D as follows. Using a Labcyte Echo® 555 Liquid Handler, 150 nL of fragment solution (20 mM) was transferred into a Greiner 384 low-volume plate (white) to prepare the probe plate. The probe plate was placed on ice. 15 μL of protein stock solution (1 μM BRD4-BD1 (GSK/GenScript) or KRas^G12D (GSK/GenScript) in PBS buffer) was dispensed into wells containing fragments. The plate was left on ice for 15 min for incubation, then irradiated at 302 nm for 10 min, and centrifuged (1000 rpm, 1 min) to remove any bubbles. The plate was then analyzed by LCMS-TOF mass spectrometry (Agilent 1200 series liquid chromatography with Agilent Bio-HPLC PLRP-S (1000 Å, 5 µm × 50 mm × 1.0 mm, PL1312-1502) reverse phase HPLC column at 70 °C equipped with an Agilent G6224 time-of-flight (ToF), see Supplementary Note 2 for the full protocols). The deconvoluted spectra were analyzed using R Studio software.
During the analysis, the column temperature was maintained at a constant 60 °C, and a sample volume of 3 µL was injected for each analysis. Data acquisition was conducted in positive ion mode within the m/z 100–2000 (mass-to-charge ratio) range. For the full protocol and spectra of the hits, see Supplementary Note 2.

STAT5B-NTD [2] = tested on: T2, STAT5B-NTD; test: Intact MS labeling screen, STAT5B-NTD conjugated with photocatalyst Ir-G2-PEG3-COOH (450 nm); settings: 450 nm 10 min;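 also: 0.14 µL of 100 mM DMSO fragment stock added to the conjugate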
T2 construct: His-SUMO (N, cleaved yes); made in house; host or cells: E. coli BL21 RILP
Summary of the method: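 Ir-G2-PEG3-COOH photocatalyst (10 eq) activated 30 min with EDC/NHS/BOP, then conjugated to STAT5B-NTD (7 µM) overnight at RT or 1 h at 37 °C in dark. PhP added, 1 h dark, then 450 nm irradiation 10 min at 4 °C; labeling read by intact LC-MS, positive ion mode, m/z 100–2000.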

STAT5B-NTD [3] = tested on: T2, STAT5B-NTD; test: Intact MS photoaffinity labeling screen, STAT5B-NTD (365 nm, UHPLC-MS); settings: for MS labeling percentage, STAT5B: STAT5B-NTD, 365 nm 10 min, no photocatalyst; for STAT5B-NTD: experimental hit status flag (0/1);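 as to MS labeling percentage, STAT5B: 0.17 µL of 100 mM DMSO fragment stock added to the protein sample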
Summary of the method: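 UV irradiation at 365 nm for 10 min at 4 °C. Labeling read by intact-protein UHPLC-MS, positive ion mode, m/z 100–2000.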

BRD4-BD1 = tested on: T3, BRD4-BD1; test: Intact MS photoaffinity labeling screen, BRD4-BD1 (302 nm, LCMS-TOF); settings: for MS labeling percentage, BRD4: BRD4-BD1, 302 nm 10 min; for BRD4-BD1: experimental hit status flag (0/1)
T3 construct: screened the PhP library against the first bromodomain of BRD4 (BRD4-BD1); purchased GSK/GenScript
Summary of the method: as §1

myoglobin (Myo) = test: Intact protein MS photoaffinity labeling screen, myoglobin; settings: intact protein MS after 10 min irradiation
Summary of the method: (§2)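 Read-out: intact protein MS taken straight from the plate, with successful labeling seen as added mass on the protein and expressed as labeling %. Beforehand, every fragment sat alone in a well with the protein for 15 min so non-covalent interactions could form.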

lysozyme (Lyo) = test: Intact protein MS photoaffinity labeling screen, lysozyme; settings: intact protein MS after 10 min irradiation
Summary of the method: as §2

[4] = tested on: carbonic anhydrase II (CA); test: Intact protein MS photoaffinity labeling screen, carbonic anhydrase; settings: intact protein MS after 10 min irradiation
Summary of the method: as §2

[5] = hit flag 1/0, sheet PhP, photoaffinity labeling screen
[6] = hit status flag, 1 = hit, 0 = no hit
[7] = sheet PhP, experimental hit status flag given as 0 or 1
[8] = PhP library sheet "PhP", binary flag printed as 0 or 1, key not given

MS labeling percentage, CA [4]: 1.2%
SMILES: CC1(CCC(=O)NCc2nc3ncccc3[nH]2)N=N1 [PhP053, N1=NC1(C)CCC(=O)NCc(n2)[nH]c(c23)cccn3]
MS labeling percentage, KRas (KRas^G12D): 2% | KRAS-G12D (experimental hit status) (KRas^G12D; [5]): 0 | Labeling of the other protein targets (vs. preferred target) [1]: > 2% and < 2% | MS labeling percentage, STAT5B+photocat (STAT5B-NTD [2]): 1% | MS labeling percentage, STAT5B (STAT5B-NTD [3]): 0% | STAT5B-NTD (experimental hit status) (STAT5B-NTD [3]; [5]): 0 | MS labeling percentage, BRD4 (BRD4-BD1): 6.7% | BRD4-BD1 (experimental hit status) (BRD4-BD1; [5]): 1 | MS labeling percentage, Myo (myoglobin (Myo)): 0.6% | MS labeling percentage, Lyo (lysozyme (Lyo)): 0%

MS labeling percentage, CA [4]: 0.1%
SMILES: Cc1c[nH]c(=O)n1-c1cccc(CNC(=O)CCC2(C)N=N2)c1 [PhP077, Cc1c[nH]c(=O)n1-c2cccc(c2)CNC(=O)CCC3(C)N=N3]
MS labeling percentage, KRas (KRas^G12D): 0.7% | KRAS-G12D (experimental hit status) (KRas^G12D; [7]): 0 | Labeling of the other protein targets (vs. preferred target) [1]: > 3% and < 3% | MS labeling percentage, STAT5B+photocat (STAT5B-NTD [2]): 11.5% | MS labeling percentage, STAT5B (STAT5B-NTD [3]): 20% | STAT5B-NTD (experimental hit status) (STAT5B-NTD [3]; [7]): 0 | BRD4-BD1 (experimental hit status) (BRD4-BD1; [7]): 0 | MS labeling percentage, Myo (myoglobin (Myo)): 0.2% | MS labeling percentage, Lyo (lysozyme (Lyo)): 0%

MS labeling percentage, CA [4]: 3%
SMILES: Cc1noc(C)c1-c1ccc(CNC(=O)CCC2(C)N=N2)cc1 [PhP080, Cc1noc(C)c1-c2ccc(cc2)CNC(=O)CCC3(C)N=N3]
MS labeling percentage, KRas (KRas^G12D): 3.2% | KRAS-G12D (experimental hit status) (KRas^G12D; [8]): 0 | Labeling efficiency over all protein targets (mean ± spread) [1]: 3.6 ± 2.2% | MS labeling percentage, STAT5B+photocat (STAT5B-NTD [2]): 21.1% | STAT5B-NTD (experimental hit status) (STAT5B-NTD [3]; [8]): 0 | MS labeling percentage, STAT5B (STAT5B-NTD [3]): 1% | BRD4-BD1 (experimental hit status) (BRD4-BD1; [8]): 0 | MS labeling percentage, Myo (myoglobin (Myo)): 3% | MS labeling percentage, Lyo (lysozyme (Lyo)): 7.7%

Further lines, the compound ahead of its results:

SMILES: CC(Cc1ccc(O)c(O)c1)NC(=O)CCC1(C)N=N1 (stereo not drawn) [PhP001, N1=NC1(C)CCC(=O)NC(C)Cc2ccc(O)c(O)c2]
MS labeling percentage, KRas (KRas^G12D): 0% | KRAS-G12D (KRas^G12D): 0 | Labeling of the other protein targets (vs. preferred target) [1]: > 1% and < 1% | MS labeling percentage, STAT5B+photocat (STAT5B-NTD [2]): 0% | MS labeling percentage, STAT5B (STAT5B-NTD [3]): 0% | STAT5B-NTD (STAT5B-NTD [3]): 0 | MS labeling percentage, BRD4 (BRD4-BD1): 0.6% | BRD4-BD1 (BRD4-BD1): 0 | MS labeling percentage, Myo (myoglobin (Myo)): 0.2% | MS labeling percentage, Lyo (lysozyme (Lyo)): 19.2% | MS labeling percentage, CA [4]: 0%

SMILES: CC1(CCC(=O)NC2CCN(c3ccc(F)cc3)CC2)N=N1 [PhP012, N1=NC1(C)CCC(=O)NC2CCN(CC2)c3ccc(F)cc3]
MS labeling percentage, KRas (KRas^G12D): 15.8% | KRAS-G12D (KRas^G12D): 0 | Labeling of the other protein targets (vs. preferred target) [1]: > 3% and < 3% | MS labeling percentage, STAT5B+photocat (STAT5B-NTD [2]): 1% | MS labeling percentage, STAT5B (STAT5B-NTD [3]): 0% | STAT5B-NTD (STAT5B-NTD [3]): 0 | MS labeling percentage, BRD4 (BRD4-BD1): 2.8% | BRD4-BD1 (BRD4-BD1): 0 | MS labeling percentage, Myo (myoglobin (Myo)): 1% | MS labeling percentage, Lyo (lysozyme (Lyo)): 2.6% | MS labeling percentage, CA [4]: 0.9%

SMILES: COc1ccc(-c2cnc(CNC(=O)CCC3(C)N=N3)[nH]2)cc1 [PhP098, COc1ccc(cc1)-c2cnc([nH]2)CNC(=O)CCC3(C)N=N3]
MS labeling percentage, KRas (KRas^G12D): 9.6% | KRAS-G12D (experimental hit status) (KRas^G12D; [6]): 0 | Labeling efficiency over all protein targets (mean ± spread) [1]: 3.3 ± 3.1% | MS labeling percentage, STAT5B+photocat (STAT5B-NTD [2]): 3.1% | MS labeling percentage, STAT5B (STAT5B-NTD [3]): 1.4% | STAT5B-NTD (experimental hit status) (STAT5B-NTD [3]; [6]): 0 | MS labeling percentage, BRD4 (BRD4-BD1): 4.3% | BRD4-BD1 (experimental hit status) (BRD4-BD1; [6]): 0 | MS labeling percentage, Myo (myoglobin (Myo)): 2.3% | MS labeling percentage, Lyo (lysozyme (Lyo)): 0.5% | MS labeling percentage, CA [4]: 1.6%

SMILES: COc1ccc(OC)c(C(O)C(C)NC(=O)CCC2(C)N=N2)c1 (stereo not drawn) [PhP038, COc1ccc(OC)c(c1)C(O)C(C)NC(=O)CCC2(C)N=N2]
MS labeling percentage, KRas (KRas^G12D): 62.1% | KRAS-G12D (experimental hit status) (KRas^G12D; [5]): 0 | Number of targets labeled in higher than 10% amount ([1]; of the six protein targets): two | MS labeling percentage, STAT5B+photocat (STAT5B-NTD [2]): 5.1% | MS labeling percentage, STAT5B (STAT5B-NTD [3]): 4.8% | STAT5B-NTD (experimental hit status) (STAT5B-NTD [3]; [5]): 0 | MS labeling percentage, BRD4 (BRD4-BD1): 25.5% | BRD4-BD1 (experimental hit status) (BRD4-BD1; [5]): 0 | MS labeling percentage, Myo (myoglobin (Myo)): 1.1% | MS labeling percentage, Lyo (lysozyme (Lyo)): 3.6% | MS labeling percentage, CA [4]: 3.6%
